{"source": "ChEMBL document CHEMBL1156598", "about": "(J Med Chem, 2008)", "key": {"[1]": {"target": "T1, Cytochrome P450 11B2, mitochondrial (Homo sapiens, UniProt P19099)", "T1 sequence (P19099 whole entry)": "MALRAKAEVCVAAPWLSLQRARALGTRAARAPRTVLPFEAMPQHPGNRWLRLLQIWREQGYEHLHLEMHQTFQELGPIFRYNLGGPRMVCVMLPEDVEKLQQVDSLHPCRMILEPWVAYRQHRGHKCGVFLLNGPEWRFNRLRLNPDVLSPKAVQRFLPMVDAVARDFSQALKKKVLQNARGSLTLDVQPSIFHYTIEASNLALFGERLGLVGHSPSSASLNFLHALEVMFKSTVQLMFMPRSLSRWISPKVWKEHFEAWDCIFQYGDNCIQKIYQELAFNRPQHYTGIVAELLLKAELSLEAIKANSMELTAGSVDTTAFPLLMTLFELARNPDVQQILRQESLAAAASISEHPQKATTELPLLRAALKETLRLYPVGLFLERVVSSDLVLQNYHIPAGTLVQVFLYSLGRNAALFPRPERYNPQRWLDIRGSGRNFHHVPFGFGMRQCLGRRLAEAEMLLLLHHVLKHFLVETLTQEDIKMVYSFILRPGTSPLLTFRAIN", "experiment": "Inhibition of human CYP11B2 expressed in hamster V79MZh11B2 cells", "type": "cell-based"}, "[2]": {"target": "T2, Cytochrome P450 11B1, mitochondrial (Homo sapiens, UniProt P15538)", "T2 sequence (P15538 whole entry)": "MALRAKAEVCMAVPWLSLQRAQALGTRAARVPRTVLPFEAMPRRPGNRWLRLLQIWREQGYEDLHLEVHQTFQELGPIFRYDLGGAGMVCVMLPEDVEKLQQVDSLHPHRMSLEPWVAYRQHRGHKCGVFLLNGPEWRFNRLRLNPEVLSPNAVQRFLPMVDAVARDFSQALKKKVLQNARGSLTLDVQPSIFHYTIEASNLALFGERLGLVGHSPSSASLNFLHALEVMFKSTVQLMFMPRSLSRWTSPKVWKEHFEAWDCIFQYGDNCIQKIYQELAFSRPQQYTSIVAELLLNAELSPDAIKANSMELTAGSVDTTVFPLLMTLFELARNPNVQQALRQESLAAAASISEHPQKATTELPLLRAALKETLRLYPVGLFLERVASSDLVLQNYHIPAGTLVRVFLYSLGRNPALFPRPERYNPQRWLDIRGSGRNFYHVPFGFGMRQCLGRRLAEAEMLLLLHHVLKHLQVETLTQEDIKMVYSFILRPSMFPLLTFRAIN", "experiment": "Inhibition of human CYP11B1 expressed in hamster V79MZh11B1 cells", "type": "cell-based"}, "[3]": {"target": "T3, Steroid 17-alpha-hydroxylase/17,20 lyase (Homo sapiens, UniProt P05093)", "T3 sequence (P05093 whole entry)": "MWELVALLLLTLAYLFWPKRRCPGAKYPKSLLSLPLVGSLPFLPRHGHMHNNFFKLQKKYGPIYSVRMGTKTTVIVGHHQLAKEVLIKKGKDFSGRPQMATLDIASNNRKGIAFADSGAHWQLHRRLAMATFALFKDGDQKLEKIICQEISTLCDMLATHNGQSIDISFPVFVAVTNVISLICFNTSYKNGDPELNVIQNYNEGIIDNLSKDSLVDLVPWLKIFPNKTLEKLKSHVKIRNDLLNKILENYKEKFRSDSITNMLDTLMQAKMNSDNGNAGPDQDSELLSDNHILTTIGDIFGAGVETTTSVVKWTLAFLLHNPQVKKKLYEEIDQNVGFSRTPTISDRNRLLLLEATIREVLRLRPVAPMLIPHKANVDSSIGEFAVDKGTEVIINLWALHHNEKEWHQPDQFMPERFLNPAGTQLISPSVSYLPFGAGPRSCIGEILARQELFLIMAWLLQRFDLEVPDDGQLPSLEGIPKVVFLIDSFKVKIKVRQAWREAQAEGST", "experiment": "Inhibition of human recombinant CYP17 expressed in Escherichia coli coexpressing NADPH-P450 reductase"}, "Cytochrome P450 3A4": {"target": "Cytochrome P450 3A4 (Homo sapiens, UniProt P08684)", "sequence (P08684 whole entry)": "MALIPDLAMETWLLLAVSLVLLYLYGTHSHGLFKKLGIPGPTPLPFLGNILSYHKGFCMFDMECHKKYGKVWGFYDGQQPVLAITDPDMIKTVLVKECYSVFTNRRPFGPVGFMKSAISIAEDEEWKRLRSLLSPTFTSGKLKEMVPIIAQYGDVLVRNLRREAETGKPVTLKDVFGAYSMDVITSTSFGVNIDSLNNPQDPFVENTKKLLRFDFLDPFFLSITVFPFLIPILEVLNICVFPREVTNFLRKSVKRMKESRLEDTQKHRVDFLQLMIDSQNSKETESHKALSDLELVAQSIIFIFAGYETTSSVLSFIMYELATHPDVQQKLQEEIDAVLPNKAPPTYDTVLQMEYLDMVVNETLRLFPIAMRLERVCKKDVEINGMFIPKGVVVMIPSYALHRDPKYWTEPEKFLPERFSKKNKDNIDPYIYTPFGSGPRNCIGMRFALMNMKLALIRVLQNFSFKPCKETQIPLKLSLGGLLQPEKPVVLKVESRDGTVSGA", "experiment": "Inhibition of recombinant CYP3A4 expressed in baculovirus-infected insect microsomes", "type": "ADME, Microsome"}}, "data": [{"compound": "Fc1ccc(-c2ccc3c(c2)CCCC3c2ccncc2)cc1", "note": "(stereo unspecified)", "values": [{"measurement": "IC50", "setting": "[1]", "value": 518, "unit": "nM"}, {"measurement": "IC50", "setting": "[2]", "value": "> 5000", "unit": "nM"}, {"measurement": "IC50", "setting": "[3]", "value": 163, "unit": "nM"}, {"measurement": "IC50", "setting": "Cytochrome P450 3A4", "value": 2170, "unit": "nM"}]}, {"compound": "COc1ccc(-c2ccc3c(c2)CCCC3(O)c2ccncc2)cc1F", "note": "(stereo unspecified)", "values": [{"measurement": "IC50", "setting": "[1]", "value": 945, "unit": "nM"}, {"measurement": "IC50", "setting": "[2]", "value": 686, "unit": "nM"}, {"measurement": "IC50", "setting": "[3]", "value": "> 5000", "unit": "nM"}, {"measurement": "IC50", "setting": "Cytochrome P450 3A4", "value": 15200, "unit": "nM"}]}, {"compound": "C[C@]12CC[C@H](O)CC1=CC[C@@H]1[C@@H]2CC[C@]2(C)C(c3cccnc3)=CC[C@@H]12", "note": "[ABIRATERONE]", "values": [{"measurement": "IC50", "setting": "[1]", "value": 1750, "unit": "nM"}]}, {"compound": "Fc1ccc(-c2ccc3c(c2)CCC3c2cccnc2)cc1", "note": "(stereo unspecified)", "values": [{"measurement": "IC50", "setting": "[3]", "value": "> 20000", "unit": "nM"}, {"measurement": "IC50", "setting": "Cytochrome P450 3A4", "value": 1700, "unit": "nM"}]}, {"compound": "Fc1ccc(-c2ccc3c(c2)CC=C3c2ccncc2)cc1", "values": [{"measurement": "IC50", "setting": "Cytochrome P450 3A4", "value": 159, "unit": "nM"}]}, {"compound": "Fc1ccc(-c2ccc3c(c2)CCC3c2ccncc2)cc1", "note": "(stereo unspecified)", "values": [{"measurement": "IC50", "setting": "[1]", "value": 543, "unit": "nM"}, {"measurement": "IC50", "setting": "[2]", "value": 1080, "unit": "nM"}, {"measurement": "IC50", "setting": "[3]", "value": 233, "unit": "nM"}, {"measurement": "IC50", "setting": "Cytochrome P450 3A4", "value": 1090, "unit": "nM"}]}, {"compound": "Oc1ccc(-c2ccc3c(c2)CCC=C3c2ccncc2)cc1F", "values": [{"measurement": "IC50", "setting": "[1]", "value": 991, "unit": "nM"}, {"measurement": "IC50", "setting": "[2]", "value": 2750, "unit": "nM"}, {"measurement": "IC50", "setting": "[3]", "value": 188, "unit": "nM"}, {"measurement": "IC50", "setting": "Cytochrome P450 3A4", "value": 2110, "unit": "nM"}]}, {"compound": "Oc1ccc(-c2ccc3c(c2)CCC=C3c2ccncc2)cc1O", "values": [{"measurement": "IC50", "setting": "Cytochrome P450 3A4", "value": 357, "unit": "nM"}]}, {"compound": "Fc1ccc(-c2ccc3c(c2)CC=C3c2cccnc2)cc1", "values": [{"measurement": "IC50", "setting": "[3]", "value": 2350, "unit": "nM"}, {"measurement": "IC50", "setting": "Cytochrome P450 3A4", "value": 6950, "unit": "nM"}]}, {"compound": "COc1ccc(-c2ccc3c(c2)CCC3(O)c2ccncc2)cc1F", "note": "(stereo unspecified)", "values": [{"measurement": "IC50", "setting": "[1]", "value": 436, "unit": "nM"}, {"measurement": "IC50", "setting": "[2]", "value": 291, "unit": "nM"}, {"measurement": "IC50", "setting": "[3]", "value": "> 10000", "unit": "nM"}, {"measurement": "IC50", "setting": "Cytochrome P450 3A4", "value": 3360, "unit": "nM"}]}, {"compound": "OC1(c2ccncc2)CCc2cc(-c3ccc(F)cc3)ccc21", "note": "(stereo unspecified)", "values": [{"measurement": "IC50", "setting": "Cytochrome P450 3A4", "value": 3230, "unit": "nM"}]}, {"compound": "OC1(c2ccncc2)CCCc2cc(-c3ccc(F)c(F)c3)ccc21", "note": "(stereo unspecified)", "values": [{"measurement": "IC50", "setting": "Cytochrome P450 3A4", "value": 13800, "unit": "nM"}]}, {"compound": "OC1(c2ccncc2)CCCc2cc(-c3ccc(F)cc3)ccc21", "note": "(stereo unspecified)", "values": [{"measurement": "IC50", "setting": "[1]", "value": 840, "unit": "nM"}, {"measurement": "IC50", "setting": "[2]", "value": 1160, "unit": "nM"}, {"measurement": "IC50", "setting": "[3]", "value": 587, "unit": "nM"}, {"measurement": "IC50", "setting": "Cytochrome P450 3A4", "value": 8760, "unit": "nM"}]}, {"compound": "Oc1ccc(-c2ccc3c(c2)CCCC3c2ccncc2)cc1F", "note": "(stereo unspecified)", "values": [{"measurement": "IC50", "setting": "[1]", "value": 587, "unit": "nM"}, {"measurement": "IC50", "setting": "[2]", "value": 1370, "unit": "nM"}, {"measurement": "IC50", "setting": "[3]", "value": 64, "unit": "nM"}, {"measurement": "IC50", "setting": "Cytochrome P450 3A4", "value": 3390, "unit": "nM"}]}, {"compound": "COc1ccc(-c2ccc3c(c2)CCC3(O)c2ccncc2)cc1", "note": "(stereo unspecified)", "values": [{"measurement": "IC50", "setting": "Cytochrome P450 3A4", "value": 3290, "unit": "nM"}]}, {"compound": "Oc1ccc(-c2ccc3c(c2)CCCC3c2ccncc2)cc1O", "note": "(stereo unspecified)", "values": [{"measurement": "IC50", "setting": "Cytochrome P450 3A4", "value": 632, "unit": "nM"}]}, {"compound": "Fc1ccc(-c2ccc3c(c2)CCC=C3c2ccncc2)cc1F", "values": [{"measurement": "IC50", "setting": "[1]", "value": 311, "unit": "nM"}, {"measurement": "IC50", "setting": "[2]", "value": "> 20000", "unit": "nM"}, {"measurement": "IC50", "setting": "[3]", "value": "> 5000", "unit": "nM"}, {"measurement": "IC50", "setting": "Cytochrome P450 3A4", "value": 3640, "unit": "nM"}]}, {"compound": "COc1ccc(-c2ccc3c(c2)CC=C3c2ccncc2)cc1", "values": [{"measurement": "IC50", "setting": "Cytochrome P450 3A4", "value": 2390, "unit": "nM"}]}, {"compound": "OC1(c2cccnc2)CCc2cc(-c3ccc(F)cc3)ccc21", "note": "(stereo unspecified)", "values": [{"measurement": "IC50", "setting": "Cytochrome P450 3A4", "value": "> 20000", "unit": "nM"}]}, {"compound": "Fc1ccc(-c2ccc3c(c2)CCC=C3c2ccncc2)cc1", "values": [{"measurement": "IC50", "setting": "Cytochrome P450 3A4", "value": 4200, "unit": "nM"}]}]}
